Test results reported in the supplement of paper PMC12420376.

Columns and labels:
OVCAR8 = assay: drug sensitivity score (DSS2) on cancer cell count; higher = more sensitive; extreme values may be limits of the assay; details: 72 h
Method in brief: (§1)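 Ovarian cancer cells grown alone or 1:1 with lung or skin fibroblasts in direct co-culture were treated for 72 h on 384-well plates carrying 528 approved and investigational compounds at 5 concentrations. Fixed cells were stained for CK8/18 with Hoechst and imaged to count cancer cells. A drug sensitivity score was then derived in Breeze from logistic curve fits.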

KURAMOCHI = assay: as above; details: 72 h
Method in brief: as §1

[1] = co-cultured fibroblast: BJHTERT
[2] = co-cultured fibroblast: none (monoculture)

Row | Compound | drug sensitivity score (OVCAR8; [1]) | drug sensitivity score (OVCAR8; co-cultured fibroblast: WI38) | drug sensitivity score (OVCAR8; [2]) | drug sensitivity score (KURAMOCHI; [1]) | drug sensitivity score (KURAMOCHI; co-cultured fibroblast: WI38) | drug sensitivity score (KURAMOCHI; [2])
1 | Cc1cn(-c2cc(NC(=O)c3ccc(C)c(Nc4nccc(-c5cccnc5)n4)c3)cc(C(F)(F)F)c2)cn1 [Nilotinib] | 0 DSS | 11 DSS | 3 DSS | 0 DSS | 8 DSS | 9.8 DSS
2 | CC/C(=C(\c1ccccc1)c1ccc(OCCN(C)C)cc1)c1ccccc1 [Tamoxifen] | 3.3 DSS | 0 DSS | 1 DSS | 1.3 DSS | 1.3 DSS | 0 DSS
3 | COc1cc2c(cc1-c1c(C)noc1C)ncc1[nH]c(=O)n([C@H](C)c3ccccn3)c12 [I-BET151] | 14.1 DSS | 4 DSS | 15.9 DSS | 9.5 DSS | 9.4 DSS | 6.3 DSS
4 | CC(=O)O[C@@]12CO[C@@H]1C[C@H](O)[C@@]1(C)C(=O)[C@H](O)C3=C(C)[C@@H](OC(=O)[C@H](O)[C@@H](NC(=O)OC(C)(C)C)c4ccccc4)C[C@@](O)([C@@H](OC(=O)c4ccccc4)[C@H]21)C3(C)C [Docetaxel] | 31.8 DSS | 31.9 DSS | 28.3 DSS | 27.4 DSS | 26.2 DSS | 21.1 DSS
5 | O=C(O)CNC(=O)c1c(O)c2ccccc2n(Cc2ccccc2)c1=O [IOX-2] | 0 DSS | 0 DSS | 0.5 DSS | 0.4 DSS | 0 DSS | 1.3 DSS
6 | Nc1nc2[nH]cnc2c(=S)[nH]1 [Thioguanine] | 4.8 DSS | 7.3 DSS | 13.6 DSS | 5.3 DSS | 5.7 DSS | 7.7 DSS
7 | CN(C)C(=N)NC(=N)N [Metformin] | 0 DSS | 0 DSS | 0 DSS | 0 DSS | 0 DSS | 0 DSS
8 | Cc1cc(Nc2ncnc3ccc(NC4=NC(C)(C)CO4)cc23)ccc1Oc1ccn2ncnc2c1 [Tucatinib] | 0 DSS | 0 DSS | 0 DSS | 2.9 DSS | 0 DSS | 2.5 DSS
9 | CC[C@]12C=CCN3CC[C@@]4(c5cc([C@@]6(C(=O)OC)C[C@@H]7C[C@@H](C(C)(F)F)CN(Cc8c6[nH]c6ccccc86)C7)c(OC)cc5N(C)[C@H]4[C@@](O)(C(=O)OC)[C@@H]1OC(C)=O)[C@@H]32 [Vinflunine] | 6.9 DSS | 3.7 DSS | 3.9 DSS | 3.1 DSS | 7 DSS | 7.9 DSS
10 | O=C(c1cccc(Cl)c1F)N1CCN(Cc2cccc(Nc3nccs3)n2)CC1 [MK-8745] | 12.5 DSS | 14.3 DSS | 13.9 DSS | 11.8 DSS | 14.3 DSS | 13.4 DSS
11 | CCN1C(=O)CNc2ncc(-c3ccc(-c4nc[nH]n4)nc3C)nc21 [CC-115] | 20.1 DSS | 4.8 DSS | 8.7 DSS | 6.9 DSS | 5.7 DSS | 15.1 DSS
12 | O=C1CCC(N2C(=O)c3ccccc3C2=O)C(=O)N1 (stereo unspecified) [Thalidomide] | 0 DSS | 0 DSS | 0 DSS | 0 DSS | 0 DSS | 0 DSS
13 | C[C@H]1O[C@@H](O[C@H]2[C@@H](O)C[C@H](O[C@H]3[C@@H](O)C[C@H](O[C@H]4CC[C@@]5(C)[C@H](CC[C@@H]6[C@@H]5C[C@@H](O)[C@]5(C)[C@@H](C7=CC(=O)OC7)CC[C@]65O)C4)O[C@@H]3C)O[C@@H]2C)C[C@H](O)[C@@H]1O [Digoxin] | 14.9 DSS | 11.6 DSS | 12.7 DSS | 8.6 DSS | 10.9 DSS | 14.2 DSS
14 | CC(=O)N(O)CCCCCNC(=O)CCC(=O)N(O)CCCCCNC(=O)CCC(=O)N(O)CCCCCN [Deferoxamine] | 3.6 DSS | 3.5 DSS | 7.7 DSS | 4.5 DSS | 7.3 DSS | 1.6 DSS
15 | CCN1CCN(Cc2ccc(Nc3ncc(F)c(-c4cc(F)c5nc(C)n(C(C)C)c5c4)n3)nc2)CC1 [Abemaciclib] | 9.4 DSS | 0 DSS | 2.4 DSS | 5.5 DSS | 7.8 DSS | 0.2 DSS
16 | CCNCCS(=O)(=O)NC[C@@]1(c2ccccc2)SC(NC(=O)C(C)(C)C)=NN1C(=O)C(C)(C)C [Litronesib] | 27.8 DSS | 28.8 DSS | 27 DSS | 19.2 DSS | 22.8 DSS | 12.2 DSS
17 | CCn1cc(-c2ccnc3[nH]c(-c4cccc(CN(C)C)c4)cc23)c(-c2ccc(NC(=O)N(C)C)cc2)n1 | 12.3 DSS | 4.4 DSS | 10 DSS | 13.7 DSS | 15.5 DSS | 14.2 DSS
18 | CN(C)Cc1ccc(S(=O)(=O)n2ccc(/C=C/C(=O)NO)c2)cc1 [Resminostat] | 18.3 DSS | 12.8 DSS | 15 DSS | 11 DSS | 10 DSS | 10.4 DSS
19 | Nc1nccc(-c2c(-c3ccc(F)cc3)ncn2C2CCCCC2)n1 | 1.4 DSS | 0 DSS | 1.2 DSS | 5.1 DSS | 4 DSS | 4.1 DSS
20 | CC(C)C[C@@H](C(=O)N[C@H](C(=O)OC1CCCC1)c1ccccc1)[C@H](O)C(=O)NO [Tosedostat] | 14.5 DSS | 11.4 DSS | 6.5 DSS | 2 DSS | 1.3 DSS | 2.1 DSS
21 | FC(F)(F)c1ccc(/C=C/c2nc(COc3ccc(CCCCn4ccnn4)cc3)co2)cc1 [Mubritinib] | 16.9 DSS | 0 DSS | 5.5 DSS | 5.6 DSS | 0 DSS | 0 DSS
22 | COc1cc2nccc(Oc3ccc(NC(=O)C4(C(=O)Nc5ccc(F)cc5)CC4)cc3)c2cc1OC [Cabozantinib] | 0 DSS | 0.2 DSS | 4.4 DSS | 0.4 DSS | 0 DSS | 0 DSS
23 | CONC(=O)c1ccccc1Nc1cc(Nc2cc(C)nn2C(C)C)ncc1Cl | 0.8 DSS | 4.2 DSS | 0 DSS | 3.3 DSS | 0 DSS | 0.2 DSS
24 | Nc1cccc2c1CN(C1CCC(=O)NC1=O)C2=O (stereo unspecified) [Lenalidomide] | 0 DSS | 0 DSS | 1.8 DSS | 0.1 DSS | 2.6 DSS | 10.7 DSS
25 | O=C(O)c1ccc(-c2c[nH]c3ncc(-c4ccccc4)cc23)cc1C1CCCC1 | 2 DSS | 4.8 DSS | 8.1 DSS | 6.8 DSS | 7.3 DSS | 7.1 DSS
26 | O=c1ncn2nc(Sc3ccc(F)cc3F)ccc2c1-c1c(Cl)cccc1Cl [Neflamapimod] | 0 DSS | 0 DSS | 0.3 DSS | 9.1 DSS | 0.7 DSS | 14.9 DSS
